Our source for the Activity values is ChEMBL document CHEMBL3817770, “Design and synthesis of 5-aminolaevulinic acid/3-hydroxypyridinone conjugates for photodynamic therapy: enhancement of protoporphyrin IX production and photo-toxicity in tumor cells” (Medchemcomm, 2016).

Data set [1] concerns A549. Nature of the data set: Increase in protoporphyrin 9 levels in human A549 cells at 100 uM after 24 hrs by fluorescence spectrometer plate reader method relative to ALA. Format: functional.
For data set [2], the system named is LNCaP. Put plainly: Increase in protoporphyrin 9 levels in human LNCAP cells at 100 uM after 24 hrs by fluorescence spectrometer plate reader method relative to ALA. In kind it is functional.
Data set [3] deals with LNCaP. Put plainly: Increase in protoporphyrin 9 levels in human LNCAP cells at 200 uM after 3 to 24 hrs by fluorescence spectrometer plate reader method. Format: functional, cell-based.
Data set [4] has as its system MCF7. Nature of the data set: Dark toxicity in human MCF7 cells at 200 uM after 4 hrs by MTT assay. The note with it: mcf7, 4 h. In kind it is cell-based. On the technique in general: Formazan colour is commonly taken as a measure of viable cells.
In data set [5] the test system is A549. Put plainly: Phototoxicity in human A549 cells assessed as cell survival at 100 uM incubated for 4 hrs followed by irradiation with blue light for 5 mins by MTT assay. In kind it is functional.
Data set [6] is described as follows: Dark toxicity in human BPH1 cells at 200 uM after 4 hrs by MTT assay. Format: cell-based. The note with it: bph-1, 4 h.
For data set [7], the system named is A549. Put plainly: Increase in protoporphyrin 9 levels in human A549 cells at 200 uM after 3 to 24 hrs by fluorescence spectrometer plate reader method. In kind it is functional, cell-based.
The subject of data set [8] is MCF7. Put plainly: Phototoxicity in human MCF7 cells assessed as cell survival at 100 uM incubated for 4 hrs followed by irradiation with blue light for 5 mins by MTT assay. In kind it is functional.
Data set [9] concerns KB. Nature of the data set: Phototoxicity in human KB cells assessed as cell survival at 200 uM incubated for 4 hrs followed by irradiation with blue light for 5 mins by MTT assay. In kind it is functional.
Data set [10] is described as follows: Increase in protoporphyrin 9 levels in human BPH1 cells at 100 uM after 24 hrs by fluorescence spectrometer plate reader method relative to ALA. In kind it is ADME, cell-based. The note with it: bph-1, 24 h.
Data set [11] deals with LNCaP. Put plainly: Dark toxicity in human LNCAP cells at 200 uM after 4 hrs by MTT assay. Format: cell-based.
Data set [12] concerns A549. Nature of the data set: Phototoxicity in human A549 cells assessed as cell survival at 200 uM incubated for 4 hrs followed by irradiation with blue light for 5 mins by MTT assay. In kind it is functional.
Data set [13] relates to LNCaP. Put plainly: Phototoxicity in human LNCAP cells assessed as cell survival at 200 uM incubated for 4 hrs followed by irradiation with blue light for 5 mins by MTT assay. In kind it is functional.
Data set [14] deals with LNCaP. Put plainly: Phototoxicity in human LNCAP cells assessed as cell survival at 100 uM incubated for 4 hrs followed by irradiation with blue light for 5 mins by MTT assay. In kind it is functional.
Data set [15] has as its system KB. Put plainly: Increase in protoporphyrin 9 levels in human KB cells at 100 uM after 24 hrs by fluorescence spectrometer plate reader method relative to ALA. In kind it is functional.
Data set [16] can be described thus: Phototoxicity in human BPH1 cells assessed as cell survival at 200 uM incubated for 4 hrs followed by irradiation with blue light for 5 mins by MTT assay. In kind it is cell-based, BPH-1. The note with it: bph-1, 4 h, 200 µM.
Data set [17] can be described thus: Increase in protoporphyrin 9 levels in human BPH1 cells at 200 uM after 3 to 24 hrs by fluorescence spectrometer plate reader method. The note with it: bph-1, 200 µM. In kind it is ADME, cell-based.
The subject of data set [18] is A549. Nature of the data set: Dark toxicity in human A549 cells at 200 uM after 4 hrs by MTT assay. Format: cell-based. To be noted: a549, 4 h.
In data set [19] the test system is KB. Nature of the data set: Increase in protoporphyrin 9 levels in human KB cells at 200 uM after 3 to 24 hrs by fluorescence spectrometer plate reader method. Format: functional, cell-based.

Activity calls are given as the source filed them. The calls are words filed in the database; no cut-off is given here.

Consider `CCn1ccc(=O)c(O)c1C(=O)N[C@@H](CC(C)C)C(=O)NCC(=O)CCC(=O)OC`, for which the result in the data set with A549 [1], in the data set on LNCaP [2], with LNCaP [3], with A549 [5], in the data set with A549 [7] and in the data set with MCF7 [8] was inactive. Also, the outcome in the data set on KB [9], in the data set on A549 [12], in the data set on LNCaP [13], in the data set on LNCaP [14], with KB [15] and in the data set on KB [19] was inactive. Besides, the Activity entry (in the data set on MCF7 [4]; in [6]; in data set [10]; in the data set on LNCaP [11]; in [16]; in data set [17]) was “Non-toxic” throughout. Also, in the data set with A549 [18], the Activity entry is “Non-toxic”.

For the compound `CCCCCCn1ccc(=O)c(O)c1C(=O)N[C@@H](Cc1ccccc1)C(=O)NCC(=O)CCC(=O)OC`, the outcome in the data set on A549 [1], with LNCaP [2], with LNCaP [3], in the data set on A549 [5], in the data set with A549 [7] and in the data set on MCF7 [8] was inactive. The result with KB [9], with A549 [12], in the data set with LNCaP [13], with LNCaP [14], with KB [15] and with KB [19] was inactive. In addition, the Activity result (with MCF7 [4]; in data set [6]; in data set [10]; with LNCaP [11]; in data set [16]; in data set [17]) was “Non-toxic” throughout. The Activity entry with A549 [18] was “Non-toxic”.
